# Source: CN115227715A, “一种用于治疗癌症的联合用药物和药物组合物” (priority 2021, dated 2022)
# Legend:
# [1] = test system: HSC-3 cells; experiment: CX-4945-induced vacuolization, phase-contrast microscopy (Experimental Example 1, Fig. 1a); assay type: cell-based; conditions: 40μM CX-4945, 12h
# [2] = molecular target: CK2 (Homo sapiens, UniProt P68400); conditions: cited from earlier work
# [3] = test system: colorectal cancer cells (结直肠癌细胞); conditions: cited from earlier work
# [4] = test system: HSC-4 cells; experiment: CX-4945-induced vacuolization, phase-contrast microscopy (Experimental Example 1, Fig. 1a); assay type: cell-based; conditions: 20μM CX-4945, 12h
# [5] = test system: cholangiocarcinoma cells (胆管癌细胞); conditions: cited from earlier work
# [6] = test system: Cal-27 cells; experiment: Macropinocytosis marker Dextran AF488 uptake and organelle probe co-localization, confocal microscopy (Experimental Example 1, Fig. 1b-1e); assay type: cell-based
# [7] = test system: non-small cell lung cancer cells (非小细胞肺癌细胞); conditions: cited from earlier work
# [8] = test system: Cal-27 cells; experiment: CX-4945-induced vacuolization, phase-contrast microscopy (Experimental Example 1, Fig. 1a); assay type: cell-based; conditions: 20μM CX-4945, 12h
# [9] = test system: UM1 cells; experiment: as above; assay type: cell-based; conditions: 40μM CX-4945, 12h
# Sequence of CK2 (P68400 whole entry): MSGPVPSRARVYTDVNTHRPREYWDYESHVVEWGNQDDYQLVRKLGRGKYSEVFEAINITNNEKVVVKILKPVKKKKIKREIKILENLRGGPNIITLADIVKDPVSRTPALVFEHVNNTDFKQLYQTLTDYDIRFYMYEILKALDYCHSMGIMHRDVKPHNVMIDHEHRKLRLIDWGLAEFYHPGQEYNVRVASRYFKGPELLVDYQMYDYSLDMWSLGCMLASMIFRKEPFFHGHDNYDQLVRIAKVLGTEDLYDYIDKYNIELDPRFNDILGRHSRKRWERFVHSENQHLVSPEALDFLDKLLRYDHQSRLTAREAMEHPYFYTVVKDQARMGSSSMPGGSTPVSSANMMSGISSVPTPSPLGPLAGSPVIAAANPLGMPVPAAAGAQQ
compound,measurement,setting,value
O=C(O)c1ccc2c(c1)nc(Nc1cccc(Cl)c1)c1ccncc12 [CX-4945],vacuole formation,[1],均产生了空泡
same,selectivity as CK2 inhibitor,[2],高度选择性
same,induction of macropinocytosis,[3],可诱导巨胞饮的发生
same,vacuole formation,[4],均产生了空泡
same,induction of macropinocytosis,[5],可诱导巨胞饮的发生
same,Dextran AF488 uptake in vacuoles,"[6]; 10μM CX-4945, 0.5mg/mL Dextran AF488, 12h","大多数空泡内都摄入了大量的Dextran AF488,呈现Dextran AF488阳性"
same,co-localization of Dextran AF488-positive vacuoles with endoplasmic reticulum,"[6]; 10μM CX-4945, 0.5mg/mL Dextran AF488, ER-tracker, 12h",不与内质网共定位
same,co-localization of Dextran AF488-positive vacuoles with lysosomes,"[6]; 10μM CX-4945, 0.5mg/mL Dextran AF488, Lyso-tracker, 12h",有一部分与溶酶体共定位
same,co-localization of Dextran AF488-positive vacuoles with mitochondria,"[6]; 10μM CX-4945, 0.5mg/mL Dextran AF488, Mito-tracker, 12h",不与线粒体共定位
same,induction of macropinocytosis,[7],可诱导巨胞饮的发生
same,vacuole formation,[8],均产生了空泡
same,vacuole formation,[9],均产生了空泡
